Tests used:
[1] = test system: boll weevil (Anthonomus grandis); assay: Boll weevil microtiter plate diet test; format: in vivo; conditions: 120 h, sprayed onto insect diet with eggs, egg and larval mortality after 5 days, read-out: mortality in comparison with untreated controls
Protocol: B.9 Boll Weevil (Anthonomus grandis)
For evaluating control of boll weevil (Anthonomus grandis) the test unit consisted of 24-well-microtiter plates containing an insect diet and 20-30 A. grandis eggs. The compounds were formulated using a solution containing 75% v/v water and 25% v/v DMSO. Different concentrations of formulated compounds were sprayed onto the insect diet at 20 μl, using a custom built micro atomizer, at two replications. After application, microtiter plates were incubated at about 23±1° C. and about 50±5% relative humidity for 5 days. Egg and larval mortality was then visually assessed.

[2] = test system: yellow fever mosquito (Aedes aegypti); assay: whole plant or invertebrate; format: in vivo; conditions: 48 h, freshly hatched larvae in tap water, larval mortality after 2 days, read-out: mortality in comparison with untreated controls
Protocol: B.12 Yellow Fever Mosquito (Aedes aegypti)
For evaluating control of yellow fever mosquito (Aedes aegypti) the test unit consisted of 96-well-microtiter plates containing 200 μl of tap water per well and 5-15 freshly hatched A. aegypti larvae. The compounds or mixtures were formulated using a solution containing 75% water and 25% DMSO. Different concentrations of formulated compounds or mixtures were sprayed onto the insect diet at 2.5 μl, using a custom built micro atomizer, at two replications. After application, microtiter plates were incubated at 28±1° C., 80±5% relative humidity for 2 days. Larval mortality was then visually assessed.

Compound: C#Cc1ccc(CC(C#N)(C#N)c2ccc(C#N)cc2)cc1 [II-77, 2-(4-cyanophenyl)-2-[(4-ethynylphenyl)methyl]-propanedinitrile]
- mortality at 2500 ppm [1]: ≥ 75%
- mortality at 2500 ppm [2]: ≥ 75%

Source: patent US10292388B2, “Malononitrile compounds for controlling animal pests” (BASF SE, priority 2012, dated 2019)
